Laboratory results: patent US10227331B2 (priority 2015, dated 2019)

Tests used:
[1] = tested on: Escherichia coli expressing NDM-1 (CLB30005, CLB30016); assay type: cell-based; settings: with imipenem 1 μg/ml; 95% inhibition of bacterial growth
In short: (§1)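 Clinical strains grown overnight on blood agar, then diluted 1:100 in 1.1× CAMHB and exposed to test compound with imipenem at 1 μg/ml. Incubation was 22–24 h at 35° C; growth was read by absorbance to find the compound concentration restoring imipenem susceptibility.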

[2] = tested on: Serratia marcescens expressing IMP-1 (CL5741); assay type: cell-based; settings: with imipenem 1 μg/ml; 95% inhibition of bacterial growth
In short: as §1

[3] = tested on: Klebsiella pneumoniae expressing VIM-1 (IHMA599644); assay type: cell-based; settings: with imipenem 1 μg/ml; 95% inhibition of bacterial growth
In short: as §1

[4] = tested on: P. aeruginosa expressing IMP-1, efflux− (MB9799); assay: Efflux: concentration of MBL inhibitor which restores susceptibility to imipenem; assay type: cell-based, Pseudomonas aeruginosa; settings: imipenem at 2 μg/mL, in the presence of a class A, C, D serine β-lactamase inhibitor closely related to relebactam
Description: (§2) The strain background is Pseudomonas aeruginosa PAO1.

[5] = tested on: P. aeruginosa expressing IMP-1, efflux+ (MB9798); assay type: cell-based, Pseudomonas aeruginosa; settings: for P. aeruginosa expressing IMP-1, efflux+ (MB9798) MITC95: imipenem at 2 μg/mL, in the presence of a class A, C, D serine β-lactamase inhibitor closely related to relebactam; for Efflux ratio: ratio MITC95 PA_9798/MITC95 PA_9799
Description: as §2

VIM-1 = VIM-1 (Pseudomonas aeruginosa (strain ATCC 15692 / DSM 22644 / CIP 104116 / JCM 14847 / LMG 12228 / 1C / PRS 101 / PAO1), UniProt A0A0F7KYQ8); assay: biochemical; settings: CCF2-FA substrate, 2 hours at 25° C
In short: (§3)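 Fluorescence assay of metallo-β-lactamase activity using CCF2-FA, a cephalosporin-linked 7-hydroxycoumarin–fluorescein substrate. Inhibitor, enzyme and substrate were incubated together for 2 hours at 25° C. IC50 came from a 4-parameter fit of inhibition versus inhibitor concentration.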

NDM-1 = NDM-1 (Klebsiella pneumoniae, UniProt C7C422); assay: biochemical; assay type: biochemical; settings: CCF2-FA substrate, 2 hours at 25° C; read-out: NDM-1 IC50
Sequence of NDM-1 (C7C422 whole entry, looked up, species assumed): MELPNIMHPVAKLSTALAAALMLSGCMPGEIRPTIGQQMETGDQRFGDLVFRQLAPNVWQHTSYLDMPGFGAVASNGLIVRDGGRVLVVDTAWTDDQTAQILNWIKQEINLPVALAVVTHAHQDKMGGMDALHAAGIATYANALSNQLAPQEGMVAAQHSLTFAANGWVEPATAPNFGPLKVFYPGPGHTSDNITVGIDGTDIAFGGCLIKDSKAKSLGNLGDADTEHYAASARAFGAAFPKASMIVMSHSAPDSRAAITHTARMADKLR
In short: as §3

IMP-1 = IMP-1 (Serratia marcescens, UniProt P52699); assay: biochemical; assay type: biochemical; settings: CCF2-FA substrate, 2 hours at 25° C; read-out: IMP-1 IC50
Sequence of IMP-1 (P52699 whole entry, looked up, species assumed): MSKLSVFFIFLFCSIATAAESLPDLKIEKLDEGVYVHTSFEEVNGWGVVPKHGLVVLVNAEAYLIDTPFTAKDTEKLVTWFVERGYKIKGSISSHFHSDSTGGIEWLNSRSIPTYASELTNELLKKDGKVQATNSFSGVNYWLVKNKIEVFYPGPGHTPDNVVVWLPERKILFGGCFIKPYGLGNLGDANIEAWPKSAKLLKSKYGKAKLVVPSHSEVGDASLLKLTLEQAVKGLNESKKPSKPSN
In short: as §3

## NCCS(=O)(=O)c1ccc(-c2ccc3c(c2)C(=O)NC3)c(-c2nnn[nH]2)c1S(N)(=O)=O.O=C(O)C(F)(F)F [Example 140, 2-((4-(3-oxoisoindolin-5-yl)-2-sulfamoyl-3-(1H-tetrazol-5-yl)phenyl)sulfonyl)ethanaminium 2,2,2-trifluoroacetate]
[1]
  Escherichia coli expressing NDM-1 (CLB30016) MITC95: 1.563 µM
[2]
  Serratia marcescens expressing IMP-1 (CL5741) MITC95: 1.563 µM
[3]
  Klebsiella pneumoniae expressing VIM-1 (IHMA599644) MITC95: 1.563 µM
[4]
  P. aeruginosa expressing IMP-1, efflux− (MB9799) MITC95: 0.7813 µM
[5]
  P. aeruginosa expressing IMP-1, efflux+ (MB9798) MITC95: 3.125 µM
  Efflux ratio: 4.00
VIM-1
  IC50: 0.223 nM
NDM-1
  IC50: 0.844 nM
IMP-1
  IC50: 0.488 nM

## NCCS(=O)(=O)c1ccc(-c2ccnc(N)c2)c(-c2nnn[nH]2)c1S(N)(=O)=O.O=C(O)C(F)(F)F [Example 141, 2-((4-(2-aminopyridin-4-yl)-2-sulfamoyl-3-(1H-tetrazol-5-yl)phenyl)sulfonyl)ethanaminium 2,2,2-trifluoroacetate]
[1]
  Escherichia coli expressing NDM-1 (CLB30016) MITC95: 0.25 µM
[2]
  Serratia marcescens expressing IMP-1 (CL5741) MITC95: 0.8906 µM
[3]
  Klebsiella pneumoniae expressing VIM-1 (IHMA599644) MITC95: 1.781 µM
[4]
  P. aeruginosa expressing IMP-1, efflux− (MB9799) MITC95: 0.8906 µM
[5]
  P. aeruginosa expressing IMP-1, efflux+ (MB9798) MITC95: 6.25 µM
  Efflux ratio: 7.02
VIM-1
  IC50: 1.01 nM
NDM-1
  IC50: 4.32 nM
IMP-1
  IC50: 4.89 nM

## NCCS(=O)(=O)c1ccc(-c2ccnc3[nH]ccc23)c(-c2nnn[nH]2)c1S(N)(=O)=O.O=C(O)C(F)(F)F [Example 142, 2-((4-(1H-pyrrolo[2,3-b]pyridin-4-yl)-2-sulfamoyl-3-(1H-tetrazol-5-yl)phenyl)sulfonyl)ethanaminium 2,2,2-trifluoroacetate]
[1]
  Escherichia coli expressing NDM-1 (CLB30016) MITC95: 1.563 µM
[2]
  Serratia marcescens expressing IMP-1 (CL5741) MITC95: 1.563 µM
[3]
  Klebsiella pneumoniae expressing VIM-1 (IHMA599644) MITC95: 3.125 µM
[4]
  P. aeruginosa expressing IMP-1, efflux− (MB9799) MITC95: 0.7813 µM
[5]
  P. aeruginosa expressing IMP-1, efflux+ (MB9798) MITC95: 3.125 µM
  Efflux ratio: 4.00
VIM-1
  IC50: 0.153 nM
NDM-1
  IC50: 0.518 nM
IMP-1
  IC50: 0.517 nM

## NCCS(=O)(=O)c1ccc(-c2cncc(CO)c2)c(-c2nnn[nH]2)c1S(N)(=O)=O.O=C(O)C(F)(F)F [Example 143, 2-((4-(5-(hydroxymethyl)pyridin-3-yl)-2-sulfamoyl-3-(1H-tetrazol-5-yl)phenyl)sulfonyl)ethanaminium 2,2,2-trifluoroacetate]
[1]
  Escherichia coli expressing NDM-1 (CLB30016) MITC95: 1.563 µM
[2]
  Serratia marcescens expressing IMP-1 (CL5741) MITC95: 3.125 µM
[3]
  Klebsiella pneumoniae expressing VIM-1 (IHMA599644) MITC95: 3.125 µM
[4]
  P. aeruginosa expressing IMP-1, efflux− (MB9799) MITC95: 1.563 µM
[5]
  P. aeruginosa expressing IMP-1, efflux+ (MB9798) MITC95: 12.5 µM
  Efflux ratio: 8.00
VIM-1
  IC50: 2.02 nM
NDM-1
  IC50: 11.2 nM
IMP-1
  IC50: 8.83 nM

## N#Cc1ccc(-c2ccc(S(=O)(=O)CCN)c(S(N)(=O)=O)c2-c2nnn[nH]2)cn1.O=C(O)C(F)(F)F [Example 144, 2-((4-(6-cyanopyridin-3-yl)-2-sulfamoyl-3-(1H-tetrazol-5-yl)phenyl)sulfonyl)ethanaminium 2,2,2-trifluoroacetate]
[1]
  Escherichia coli expressing NDM-1 (CLB30016) MITC95: 0.7813 µM
[2]
  Serratia marcescens expressing IMP-1 (CL5741) MITC95: 3.125 µM
[3]
  Klebsiella pneumoniae expressing VIM-1 (IHMA599644) MITC95: 3.125 µM
[4]
  P. aeruginosa expressing IMP-1, efflux− (MB9799) MITC95: 1.563 µM
[5]
  P. aeruginosa expressing IMP-1, efflux+ (MB9798) MITC95: 50 µM
  Efflux ratio: 31.99
VIM-1
  IC50: 3.04 nM
NDM-1
  IC50: 7.21 nM
IMP-1
  IC50: 5.59 nM

## NCCS(=O)(=O)c1ccc(-c2ccc(CO)nc2)c(-c2nnn[nH]2)c1S(N)(=O)=O.O=C(O)C(F)(F)F [Example 145, 2-((4-(6-(hydroxymethyl)pyridin-3-yl)-2-sulfamoyl-3-(1H-tetrazol-5-yl)phenyl)sulfonyl)ethanaminium 2,2,2-trifluoroacetate]
[1]
  Escherichia coli expressing NDM-1 (CLB30016) MITC95: 1.563 µM
[2]
  Serratia marcescens expressing IMP-1 (CL5741) MITC95: 3.125 µM
[3]
  Klebsiella pneumoniae expressing VIM-1 (IHMA599644) MITC95: 6.25 µM
[4]
  P. aeruginosa expressing IMP-1, efflux− (MB9799) MITC95: 1.563 µM
[5]
  P. aeruginosa expressing IMP-1, efflux+ (MB9798) MITC95: 12.5 µM
  Efflux ratio: 8.00
VIM-1
  IC50: 1.25 nM
NDM-1
  IC50: 4.31 nM
IMP-1
  IC50: 4.84 nM

## NCCS(=O)(=O)c1ccc(-c2ccc3nncn3c2)c(-c2nnn[nH]2)c1S(N)(=O)=O.O=C(O)C(F)(F)F [Example 146, 2-((4-([1,2,4]triazolo[4,3-a]pyridin-6-yl)-2-sulfamoyl-3-(1H-tetrazol-5-yl)phenyl)sulfonyl)ethanaminium 2,2,2-trifluoroacetate]
[1]
  Escherichia coli expressing NDM-1 (CLB30016) MITC95: 0.7813 µM
[2]
  Serratia marcescens expressing IMP-1 (CL5741) MITC95: 3.125 µM
[3]
  Klebsiella pneumoniae expressing VIM-1 (IHMA599644) MITC95: 6.25 µM
[4]
  P. aeruginosa expressing IMP-1, efflux− (MB9799) MITC95: 1.563 µM
[5]
  P. aeruginosa expressing IMP-1, efflux+ (MB9798) MITC95: 100 µM
  Efflux ratio: 63.98
VIM-1
  IC50: 1.32 nM
NDM-1
  IC50: 20.6 nM
IMP-1
  IC50: 44.4 nM

## NCCS(=O)(=O)c1ccc(-c2cccc(N3CCCC3=O)n2)c(-c2nnn[nH]2)c1S(N)(=O)=O.O=C(O)C(F)(F)F [Example 147, 2-((4-(6-(2-oxopyrrolidin-1-yl)pyridin-2-yl)-2-sulfamoyl-3-(1H-tetrazol-5-yl)phenyl)sulfonyl)ethanaminium 2,2,2-trifluoroacetate]
[1]
  Escherichia coli expressing NDM-1 (CLB30016) MITC95: 6.25 µM
[2]
  Serratia marcescens expressing IMP-1 (CL5741) MITC95: 6.25 µM
[3]
  Klebsiella pneumoniae expressing VIM-1 (IHMA599644) MITC95: 6.25 µM
[4]
  P. aeruginosa expressing IMP-1, efflux− (MB9799) MITC95: 1.563 µM
[5]
  P. aeruginosa expressing IMP-1, efflux+ (MB9798) MITC95: 100 µM
  Efflux ratio: 63.98
VIM-1
  IC50: 0.519 nM
NDM-1
  IC50: 3.12 nM
IMP-1
  IC50: 4.1 nM

## NCCS(=O)(=O)c1ccc(-c2cncc3ccccc23)c(-c2nnn[nH]2)c1S(N)(=O)=O.O=C(O)C(F)(F)F [Example 148, 2-((4-(isoquinolin-4-yl)-2-sulfamoyl-3-(1H-tetrazol-5-yl)phenyl)sulfonyl)ethanaminium 2,2,2-trifluoroacetate]
[1]
  Escherichia coli expressing NDM-1 (CLB30016) MITC95: 3.125 µM
[2]
  Serratia marcescens expressing IMP-1 (CL5741) MITC95: 3.125 µM
[3]
  Klebsiella pneumoniae expressing VIM-1 (IHMA599644) MITC95: 3.125 µM
[4]
  P. aeruginosa expressing IMP-1, efflux− (MB9799) MITC95: 1.563 µM
[5]
  P. aeruginosa expressing IMP-1, efflux+ (MB9798) MITC95: 3.125 µM
  Efflux ratio: 2.00
VIM-1
  IC50: 0.434 nM
NDM-1
  IC50: 0.608 nM
IMP-1
  IC50: 0.983 nM

## NCCS(=O)(=O)c1ccc(-c2cnc3[nH]ccc3c2)c(-c2nnn[nH]2)c1S(N)(=O)=O.O=C(O)C(F)(F)F [Example 149, 2-((4-(1H-pyrrolo[2,3-b]pyridin-5-yl)-2-sulfamoyl-3-(1H-tetrazol-5-yl)phenyl)sulfonyl)ethanaminium 2,2,2-trifluoroacetate]
[1]
  Escherichia coli expressing NDM-1 (CLB30016) MITC95: 1.563 µM
[2]
  Serratia marcescens expressing IMP-1 (CL5741) MITC95: 3.125 µM
[3]
  Klebsiella pneumoniae expressing VIM-1 (IHMA599644) MITC95: 3.125 µM
[4]
  P. aeruginosa expressing IMP-1, efflux− (MB9799) MITC95: 0.7813 µM
[5]
  P. aeruginosa expressing IMP-1, efflux+ (MB9798) MITC95: 6.25 µM
  Efflux ratio: 8.00
VIM-1
  IC50: 0.185 nM
NDM-1
  IC50: 0.534 nM
IMP-1
  IC50: 0.856 nM

## NCCS(=O)(=O)c1ccc(-c2cccc3[nH]c(=O)[nH]c23)c(-c2nnn[nH]2)c1S(N)(=O)=O.O=C(O)C(F)(F)F [Example 150, 2-((4-(2-oxo-2,3-dihydro-1H-benzo[d]imidazol-4-yl)-2-sulfamoyl-3-(1H-tetrazol-5-yl)phenyl)sulfonyl)ethanaminium 2,2,2-trifluoroacetate]
[1]
  Escherichia coli expressing NDM-1 (CLB30016) MITC95: 3.125 µM
[2]
  Serratia marcescens expressing IMP-1 (CL5741) MITC95: 3.125 µM
[3]
  Klebsiella pneumoniae expressing VIM-1 (IHMA599644) MITC95: 3.125 µM
[4]
  P. aeruginosa expressing IMP-1, efflux− (MB9799) MITC95: 1.563 µM
[5]
  P. aeruginosa expressing IMP-1, efflux+ (MB9798) MITC95: 1.563 µM
  Efflux ratio: 1.00
VIM-1
  IC50: 0.44 nM
NDM-1
  IC50: 0.497 nM
IMP-1
  IC50: 0.931 nM

## NCCS(=O)(=O)c1ccc(-c2ccc(-c3nn[nH]n3)cc2)c(-c2nnn[nH]2)c1S(N)(=O)=O.O=C(O)C(F)(F)F [Example 151, 2-((3-sulfamoyl-2-(1H-tetrazol-5-yl)-4′-(2H-tetrazol-5-yl)-[1,1′-biphenyl]-4-yl)sulfonyl)ethanaminium 2,2,2-trifluoroacetate]
[1]
  Escherichia coli expressing NDM-1 (CLB30016) MITC95: 12.5 µM
[2]
  Serratia marcescens expressing IMP-1 (CL5741) MITC95: 12.5 µM
[3]
  Klebsiella pneumoniae expressing VIM-1 (IHMA599644) MITC95: 25 µM
[4]
  P. aeruginosa expressing IMP-1, efflux− (MB9799) MITC95: 3.125 µM
[5]
  P. aeruginosa expressing IMP-1, efflux+ (MB9798) MITC95: 12.5 µM
  Efflux ratio: 4.00
VIM-1
  IC50: 0.544 nM
NDM-1
  IC50: 0.271 nM
IMP-1
  IC50: 0.191 nM
